For 35 molecules, absorption maximum results are on record in the Deep4Chem optical property database.

This data set is described as follows: solvent given as SMILES.

Take `CCCCCCCCOc1ccc(C2=C3C(C)=C(C#Cc4ccc(B(c5c(C)cc(C)cc5C)c5c(C)cc(C)cc5C)cc4)C(C)=[N+]3[B-](F)(F)n3c(C)c(C#Cc4ccc(B(c5c(C)cc(C)cc5C)c5c(C)cc(C)cc5C)cc4)c(C)c32)cc1`: the absorption maximum reads like this: (in CC#N) 568.51 nm; (in CCCCCC) 580.18 nm; (in ClCCl) 576 nm.
For the setting “in C1CCCCC1”, `CCCCCCCCOc1ccc2c3c(c4ccc(OCCCCCCCC)cc4c2c1)C(C)(C)c1ccccc1-3` returned an absorption maximum of 388 nm.
`Nc1ccc(/C=C/c2cccnc2)cc1`: the absorption maximum (in CC#N) was determined as 342 nm and the absorption maximum (in CCCCCC) turned out to be 336 nm.
Consider `CC[N+]1(CC)CN2C(=N1)C(C(=O)O)=Cc1c2ccc2ccccc12`, for which the absorption maximum (in O) is 406 nm.
As for `Cc1c(C)n2c(COC(=O)c3ccccc3I)c(C)c(=O)n2c1=O`, the absorption maximum (in CCO) amounted to 377 nm.
In the case of `CCN(CC)c1ccc2c(-c3ccccc3C(=O)O)c3c([o+]c2c1)/C(=C/c1ccc2c(c1)c1ccccc1n2CC)CCC3`, the absorption maximum (in ClCCl) is 646 nm.
Same read-out and setting: the value for `FC(F)(F)c1ccccc1B1c2ccccc2N(c2ccccc2)c2ccccc21` was 389 nm; that for `[O-][n+]1c(/C=C/c2ccccc2)nc(Nc2ccccc2)c2c1CCCC2` was 416 nm; that for `CSc1ccc(/C=C/c2ccncn2)cc1` was 346 nm.
As for `C1=Cc2ccc3ccccc3c2N(c2ccccc2)B1c1ccccc1`, the absorption maximum (in C1CCCCC1) was found to be 364 nm.
In the case of `O=P1(c2ccccc2)C(c2cccs2)=Cc2ccccc21` (configuration not stated), the absorption maximum (in C1CCOC1) was found to be 368 nm.
Regarding `N#CC(C#N)=Cc1ccc(-c2ccc(-c3nc4ccccc4s3)c(O)c2)o1`, the absorption maximum (in ClCCl) was 426 nm and the absorption maximum (in O) is 394 nm.
Consider `CN(C)c1ccc(C#Cc2ccccc2)cc1`, for which the absorption maximum runs as follows: (in C1CCCCC1) 316.9 nm; (in C1CCOC1) 328.8 nm; (in C1COCCO1) 326.61 nm; (in CC1CCCO1) 327.1 nm; (in CC(C)=O) 329.4 nm; (in CC(C)CC(C)(C)C) 315 nm. In addition, the absorption maximum stood at 321.4 nm (in CC(C)O); 316.9 nm (in CCCCCCCCCCCCCCCC); 330 nm (in CCCCCCCCCCCCCCCCCl); 324 nm (in CO); 326.3 nm (in Cc1ccccc1).
On to `C(=C(c1ccccc1)c1ccccc1)c1ccc(C=C(c2ccccc2)c2ccccc2)cc1`, for which the absorption maximum (in C1CCOC1) was 352 nm.
Turning to `O=S(=O)([O-])c1ccc2c([O-])cc(S(=O)(=O)[O-])cc2c1`, the absorption maximum (in O) is on record as 350 nm.
With `COc1ccccc1-c1c(-c2ccccc2O)nc(-c2ccc(C(F)(F)F)cc2)n1-c1ccc(C)cc1`, the absorption maximum runs as follows: (in C1CCOC1) 313 nm; (in CC(C)O) 311 nm; (in CO) 309 nm; (in CS(C)=O) 315 nm; (in ClC(Cl)Cl) 314 nm; (in ClCCl) 313 nm.
Regarding `c1ccc(B2Nc3cc4c(cc3-c3occc32)NB(c2ccccc2)c2ccoc2-4)cc1`, where the note is “in ClCCl”, the absorption maximum came out at 388 nm.
Consider `COc1ccc(-c2cc3c(s2)c(-c2ccccc2)cc(=O)n3C)cc1`, for which the absorption maximum reads like this: (in CC#N) 384 nm; (in ClCCl) 386 nm.
In turn, `c1ccc(-c2nc(-c3ccccc3)nc(-c3ccc(-n4c5ccccc5c5cc6c(cc54)C(c4ccccc4)(c4ccccc4)c4ccccc4-6)cc3)n2)cc1` had an absorption maximum (in Cc1ccccc1) of 366 nm.
In the case of `Cc1cc(C)c([B-]2(c3c(C)cc(C)cc3C)[O+]=P(c3ccccc3)(c3ccccc3)c3cc(C#Cc4ccccc4)sc3-c3sc(C#Cc4ccccc4)cc32)c(C)c1`, where the note is “in C1CCOC1”, the absorption maximum was 417 nm.
On to `COCCN1C(=O)/C(=C/c2cccc(N(C)C)c2)N=C1C`, for which the absorption maximum stood at 353 nm (in C1CCOC1), 353 nm (in CC#N) and 352 nm (in CCCCCC).
Regarding `Cc1ccc([B-]2(c3ccc(C)cc3)n3nc(C(F)(F)F)cc3-c3c4ccccc4cc[n+]32)cc1`, the absorption maximum (in C1CCCCC1) amounted to 377 nm, the absorption maximum (in Cc1ccccc1) is 377 nm and the absorption maximum (in ClCCl) turned out to be 373 nm.
Turning to `COc1ccc2cc(-c3ccc(S(C)(=O)=O)cc3)oc(=O)c2c1`, the absorption maximum runs as follows: (in CCO) 331 nm; (in CCOC(C)=O) 331 nm; (in CN(C)C=O) 333 nm; (in CO) 330 nm; (in ClC(Cl)Cl) 334 nm.
As to `CC(C)(C)NC(=O)c1ccc2ccc3cccc4c3c2c1c1c2ccccc2c2ccccc2c41`, the absorption maximum (in ClCCl) stood at 392 nm.
As to `COc1cc(OC)c2c(c1)c1c(c3ccc(C(C)(C)C)cc32)=[N+]2C(=Nc3c(-c4cc(OC)c(OC)c(OC)c4)c4c5cc(OC)cc(OC)c5c5cc(C(C)(C)C)ccc5c4n3[B-]2(F)F)C=1c1cc(OC)c(OC)c(OC)c1`, the absorption maximum (in Cc1ccccc1) is 791 nm.
Where the note is “in ClCCl”, `CCc1ccc(C2=[N+]3C(=Cc4c5ccc(OC)cc5c(-c5ccc(CC)s5)n4[B-]3(F)F)c3ccc(OC)cc32)s1` returned an absorption maximum of 727 nm.
Consider `CCn1c2ccccc2c2cc(C#Cc3cc(C#Cc4ccc5c(c4)c4ccccc4n5CC)nc(SC)n3)ccc21`, for which the absorption maximum runs as follows: (in C1CCOC1) 396 nm; (in CCOC(C)=O) 392 nm; (in CN(C)C=O) 399 nm; (in Cc1ccccc1) 396 nm; (in ClCCl) 396 nm.
With `Cc1ccccc1C1CC(=O)Oc2c1c1nc3ccccc3nc1c1ccccc21` (configuration not stated), where the note is “in ClC(Cl)Cl”, the absorption maximum turned out to be 410 nm.
Turning to `N#Cc1c(-n2c3ccccc3c3cc(I)ccc32)c(C#N)c(-n2c3ccccc3c3cc(I)ccc32)c(-n2c3ccccc3c3cc(I)ccc32)c1-n1c2ccccc2c2cc(I)ccc21`, the absorption maximum (in Cc1ccccc1) was determined as 383 nm.
On to `CC1(C)C(/C=C/C2=C(Cl)C(=C/C=C3/N(CCCS(=O)(=O)[O-])c4ccccc4C3(C)C)/CCC2)=[N+](CCCS(=O)(=O)[O-])c2ccccc21`, for which, under “in CO”, the absorption maximum stood at 778 nm.
Turning to `N#CSC1=CC2=C(c3ccccc3)c3cc(SC#N)c(N4CCOCC4)n3[B-](F)(F)[N+]2=C1N1CCOCC1`, the absorption maximum by setting is: (in CC#N) 588 nm; (in CCCCCC) 599 nm; (in CCOC(C)=O) 593 nm; (in CO) 585 nm; (in ClCCl) 596 nm.
`c1ccc2c(c1)Cc1ccccc1N2c1c2ccccc2cc2ccccc12` gave an absorption maximum (in Cc1ccccc1) of 416 nm.
Take `COC1=[N+]2C(=C(c3ccc(C)cc3)c3ccc(OC)n3[B-]2(F)F)C=C1`: the absorption maximum is, setting by setting: (in C1CCCCC1) 513 nm; (in C1CCOC1) 514 nm; (in CC#N) 510 nm; (in CCOC(C)=O) 512 nm; (in CO) 510 nm; (in Cc1ccccc1) 517 nm. Also, the absorption maximum (in ClC(Cl)Cl) is recorded as 516 nm.
Where the note is “in C1CCOC1”, `CCCCC1(CCCC)c2cc(C#Cc3ccc(C=C(c4ccccc4)c4ccccc4)cc3)ccc2-c2ccc(C#Cc3ccc(C=C(c4ccccc4)c4ccccc4)cc3)cc21` had an absorption maximum of 376 nm.
Where the note is “in ClC(Cl)Cl”, `CCCCCCCCCCCC#CC#CCCCCCCCCCN1C(=O)c2ccc3c4ccc5c6c(ccc(c7ccc(c2c37)C1=O)c64)C(=O)N(CCCCCCCCCC#CC#CCCCCCCCCCCCC)C5=O` gave an absorption maximum of 526 nm.
